Assay [1] addresses T1, rat AHR (Rattus norvegicus, UniProt P41738).
T1 construct: The reporter gene was introduced into a genome of rat hepatoma H-4-II-E cells via lentiviral infection; endogenous in cells; host or cells: H-4-II-E (rat hepatoma) with a lentivirally integrated 6x XRE Nano-luc reporter
T1 sequence (P41738 10-853): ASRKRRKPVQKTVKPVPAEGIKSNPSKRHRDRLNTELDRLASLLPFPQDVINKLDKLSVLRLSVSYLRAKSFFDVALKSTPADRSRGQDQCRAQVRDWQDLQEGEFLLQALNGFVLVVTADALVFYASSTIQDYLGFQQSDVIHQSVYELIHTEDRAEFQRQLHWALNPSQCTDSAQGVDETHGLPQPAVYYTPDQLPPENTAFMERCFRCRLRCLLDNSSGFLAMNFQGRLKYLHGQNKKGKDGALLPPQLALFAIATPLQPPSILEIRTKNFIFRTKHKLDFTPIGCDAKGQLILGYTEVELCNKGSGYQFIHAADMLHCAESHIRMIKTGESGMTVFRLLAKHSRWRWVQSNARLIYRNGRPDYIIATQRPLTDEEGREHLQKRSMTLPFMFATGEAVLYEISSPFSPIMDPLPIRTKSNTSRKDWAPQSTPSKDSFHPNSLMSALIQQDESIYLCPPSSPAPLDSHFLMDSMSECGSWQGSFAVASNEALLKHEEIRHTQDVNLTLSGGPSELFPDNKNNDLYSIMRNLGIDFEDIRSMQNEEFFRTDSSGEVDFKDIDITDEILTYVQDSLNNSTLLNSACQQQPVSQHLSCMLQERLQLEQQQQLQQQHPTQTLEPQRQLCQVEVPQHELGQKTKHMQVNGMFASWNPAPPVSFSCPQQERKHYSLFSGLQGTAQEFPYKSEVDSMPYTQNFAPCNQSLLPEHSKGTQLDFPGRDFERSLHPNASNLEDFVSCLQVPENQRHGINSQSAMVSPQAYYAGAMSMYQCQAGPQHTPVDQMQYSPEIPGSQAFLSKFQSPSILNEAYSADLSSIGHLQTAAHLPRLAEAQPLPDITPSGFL
The experiment in a line: Rat AHR agonist luciferase assay (6x XRE Nano-luc reporter in H-4-II-E cells). Particulars: AHR activation, rat hepatoma H-4-II-E reporter cells, incubated 4 to 24 hours; read-out: H4IIE EC50. In kind it is cell-based. From the text: A lentivirus containing the reporter gene was generated by co-transfecting the transfer plasmid with packaging plasmids into 293T cells using conventional transfection methods in the art, followed by purification. The reporter gene was introduced into a genome of rat hepatoma H-4-II-E cells via lentiviral infection, and cells stably expressing the reporter gene were selected with puromycin for the rat AHR agonist luciferase assay.

Assay [2] has as its target mouse AHR (Mus musculus, UniProt P30561). The experiment in a line: Mouse AHR agonist luciferase assay (6x XRE Nano-luc reporter in Hepa1-6 cells).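 Also: stable Hepa1-6 reporter line, 4–24 h exposure, 11-point serial dilution, Nano-Glo luminescence as fold over medium-only baseline, EC50 from four-parameter fit of activation fold.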
Protocol: The reporter gene plasmid was transfected into mouse hepatoma Hepa1-6 cells by a conventional liposome transfection method in the art, and stably expressing cells were selected by puromycin for the mouse AHR agonist luciferase assay.
On day one, the stably expressing reporter gene Hepa1-6 cell line was counted and seeded into a white opaque 96-well plate at a density of 1×10^4 cells per well −8×10^4 cells per well using 100 μL of phenol red-free Dulbecco's Modified Eagle Medium (DMEM) (DMEM without phenol red, 10% fetal bovine serum). The cells were cultured in an incubator maintained at 37° C. with 5% CO2 for 24 hours.
Test compounds were prepared as 10 mM stock solutions in DMSO and stored at 4° C. protected from light. Before treatment, the compound stock solutions, positive control compounds (e.g., dioxin, ITE, or kynurenine), and a negative control compound (DMSO) were subjected to preliminary dilution (determined based on pre-experiments) with complete medium without tryptophan and phenol red, followed by 3- to 20-fold serial dilutions to 11 concentration points to obtain 10× dilution solutions. When treating the cells, 10 μL of medium was first aspirated from the 96-well plate containing the seeded cells, and then 10 μL of the serially diluted 10× dilution solution was added. Each compound was tested in duplicate, and each duplicate experiment included a well with a concentration of 0 (i.e., containing only medium) to determine the baseline. The reporter cells were returned to the incubator and incubated for 4 to 24 hours after treatment.
After treatment, 100 μL/well of Nano-Glo Luciferase Assay Reagent was added to the 96-well plate, and the RLU of each well was measured. The RLU values for the wells with the concentration of 0 on the 96-well plates were averaged to calculate the baseline Ave RLU^Vehicle The activity of AHR induced by the test compounds at different concentrations was calculated according to Formula (1) based on the ratio of RLU^Test Cmpd from the experimental groups to the baseline Ave RLU^Vehicle, to determine the activation fold.
The activation fold and the corresponding compound concentration were fitted using GraphPad Prism 9 with [Agonist] vs. response—variable slope (four parameters) to determine the EC50 of the compound for AHR activation.
Assay [3] addresses T2, human AHR (Homo sapiens, UniProt P35869).
T2 sequence (P35869 11-848): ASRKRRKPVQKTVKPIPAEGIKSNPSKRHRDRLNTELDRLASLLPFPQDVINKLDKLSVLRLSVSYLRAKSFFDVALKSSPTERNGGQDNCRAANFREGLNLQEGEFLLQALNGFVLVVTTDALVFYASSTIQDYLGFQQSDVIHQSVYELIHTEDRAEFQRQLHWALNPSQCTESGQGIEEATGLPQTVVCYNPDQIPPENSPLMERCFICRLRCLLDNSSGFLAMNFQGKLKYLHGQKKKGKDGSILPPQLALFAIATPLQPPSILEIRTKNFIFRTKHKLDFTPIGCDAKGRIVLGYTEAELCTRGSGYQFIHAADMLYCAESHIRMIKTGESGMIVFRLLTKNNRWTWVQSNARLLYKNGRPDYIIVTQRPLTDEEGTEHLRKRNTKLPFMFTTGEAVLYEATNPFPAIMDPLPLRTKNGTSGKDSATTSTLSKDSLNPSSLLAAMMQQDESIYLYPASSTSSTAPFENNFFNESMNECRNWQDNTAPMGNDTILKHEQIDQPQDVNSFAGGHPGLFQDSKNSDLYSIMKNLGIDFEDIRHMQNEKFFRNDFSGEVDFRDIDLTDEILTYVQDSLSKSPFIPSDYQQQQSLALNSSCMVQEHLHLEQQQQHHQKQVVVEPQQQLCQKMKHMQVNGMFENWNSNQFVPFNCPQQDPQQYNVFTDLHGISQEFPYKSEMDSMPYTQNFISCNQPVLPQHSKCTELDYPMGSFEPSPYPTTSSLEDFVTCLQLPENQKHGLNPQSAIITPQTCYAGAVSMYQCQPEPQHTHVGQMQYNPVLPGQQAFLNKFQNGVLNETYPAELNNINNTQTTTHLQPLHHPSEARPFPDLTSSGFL
The experiment in a line: Human AHR agonist luciferase assay (CYP1A1 promoter Nano-luc reporter in HepG2 cells).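 Also: stably transfected HepG2 clone, DRE-containing 1200 bp promoter region driving Nano-luc, treated 4 to 24 h with 11-point dilutions in tryptophan-free medium, medium-only wells as baseline.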
Protocol: To detect AHR activation, a reporter gene plasmid was constructed by placing the gene sequence from −1200 bp to 0 bp upstream of CYP1A1 in front of a Nano-luc luciferase reporter gene according to conventional construction methods of reporter gene plasmids in the art. The reporter gene plasmid was transfected into human hepatoma HepG2 cells by a conventional liposome transfection method in the art, and stably expressing cells were selected by puromycin. The selected cells were diluted to a concentration of 5 cells/mL and seeded into a 96-well plate at 100 μL/well, and single clones were obtained after growth. A single clone with normal morphology, normal growth, and the highest induction signal was selected for the human AHR agonist luciferase assay.
On day one, the HepG2 monoclonal cell line stably expressing reporter gene was counted and seeded into a white opaque 96-well plate at a density of 1×10^4 cells per well −8×10^4 cells per well using 100 μL of complete medium without tryptophan and phenol red (minimal essential medium (MEM) without tryptophan and phenol red, 10% (v/v) fetal bovine serum, 1× non-essential amino acids, 1× sodium pyruvate, and 1× GlutaMax). The cells were cultured in an incubator maintained at 37° C. with 5% (v/v) CO2 for 24 hours.
Test compounds were prepared as 10 mmol/L stock solutions in dimethyl sulfoxide (DMSO) and stored at 4° C. protected from light. Before treatment, the compound stock solutions, positive control compounds (e.g., dioxin, 2-(1H-indole-3-carbonyl)thiazole-4-carboxylic acid methyl ester (ITE), or kynurenine), and a negative control compound (DMSO) were subjected to preliminary dilution (determined based on pre-experiments) with the complete medium without tryptophan and phenol red, followed by 3- to 20-fold serial dilutions to 11 concentration points to obtain 2× dilution solutions. When treating the cells, 50 μL of medium was first aspirated from the 96-well plate containing the seeded cells, and then 50 μL of the serially diluted 2× dilution solution was added. Each compound was tested in duplicate, and each duplicate experiment included a well with a concentration of 0 (i.e., containing only the medium) to determine the baseline. The reporter cells were returned to the incubator and incubated for 4 to 24 hours after treatment.
After treatment, 100 μL/well of Nano-Glo Luciferase Assay Reagent was added to the 96-well plate, and the relative light unit (RLU) of each well was measured. The RLU values for the wells with the concentration of 0 on the 96-well plates were averaged to calculate the baseline Ave RLU^Vehicle. The activity of AHR induced by the test compounds at different concentrations was calculated according to Formula (1) based on the ratio of RLU^Test Cmpd from the experimental groups to the baseline Ave RLU^Vehicle, to determine the activation fold.
The activation fold and the corresponding compound concentration were fitted using GraphPad Prism 9 with [Agonist] vs. response—variable slope (four parameters) to calculate the EC50 of the compound for AHR activation.

Molecules are shown by their SMILES.

Sequence of mouse AHR (P30561 10-805 limits assumed): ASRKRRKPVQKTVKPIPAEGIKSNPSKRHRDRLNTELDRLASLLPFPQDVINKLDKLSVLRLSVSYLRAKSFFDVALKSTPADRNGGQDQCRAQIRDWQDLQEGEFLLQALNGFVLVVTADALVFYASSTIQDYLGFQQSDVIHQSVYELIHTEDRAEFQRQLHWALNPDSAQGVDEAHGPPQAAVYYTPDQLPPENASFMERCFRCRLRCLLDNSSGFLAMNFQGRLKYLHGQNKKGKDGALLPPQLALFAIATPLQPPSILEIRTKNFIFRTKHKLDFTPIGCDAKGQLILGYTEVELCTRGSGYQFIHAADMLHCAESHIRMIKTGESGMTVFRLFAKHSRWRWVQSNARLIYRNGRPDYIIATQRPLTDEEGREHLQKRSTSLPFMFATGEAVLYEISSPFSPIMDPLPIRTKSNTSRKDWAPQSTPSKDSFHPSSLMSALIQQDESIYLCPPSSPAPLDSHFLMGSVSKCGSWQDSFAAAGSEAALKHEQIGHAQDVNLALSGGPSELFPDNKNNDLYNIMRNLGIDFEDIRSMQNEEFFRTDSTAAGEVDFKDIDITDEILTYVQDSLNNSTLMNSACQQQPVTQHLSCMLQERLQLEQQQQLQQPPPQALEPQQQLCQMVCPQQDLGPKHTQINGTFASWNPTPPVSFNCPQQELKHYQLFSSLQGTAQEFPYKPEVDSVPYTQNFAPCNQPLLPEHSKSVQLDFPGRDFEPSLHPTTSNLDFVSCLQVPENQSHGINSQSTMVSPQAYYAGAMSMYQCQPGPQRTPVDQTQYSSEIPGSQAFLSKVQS
Sequence of mouse AHR (P53762 whole entry partner): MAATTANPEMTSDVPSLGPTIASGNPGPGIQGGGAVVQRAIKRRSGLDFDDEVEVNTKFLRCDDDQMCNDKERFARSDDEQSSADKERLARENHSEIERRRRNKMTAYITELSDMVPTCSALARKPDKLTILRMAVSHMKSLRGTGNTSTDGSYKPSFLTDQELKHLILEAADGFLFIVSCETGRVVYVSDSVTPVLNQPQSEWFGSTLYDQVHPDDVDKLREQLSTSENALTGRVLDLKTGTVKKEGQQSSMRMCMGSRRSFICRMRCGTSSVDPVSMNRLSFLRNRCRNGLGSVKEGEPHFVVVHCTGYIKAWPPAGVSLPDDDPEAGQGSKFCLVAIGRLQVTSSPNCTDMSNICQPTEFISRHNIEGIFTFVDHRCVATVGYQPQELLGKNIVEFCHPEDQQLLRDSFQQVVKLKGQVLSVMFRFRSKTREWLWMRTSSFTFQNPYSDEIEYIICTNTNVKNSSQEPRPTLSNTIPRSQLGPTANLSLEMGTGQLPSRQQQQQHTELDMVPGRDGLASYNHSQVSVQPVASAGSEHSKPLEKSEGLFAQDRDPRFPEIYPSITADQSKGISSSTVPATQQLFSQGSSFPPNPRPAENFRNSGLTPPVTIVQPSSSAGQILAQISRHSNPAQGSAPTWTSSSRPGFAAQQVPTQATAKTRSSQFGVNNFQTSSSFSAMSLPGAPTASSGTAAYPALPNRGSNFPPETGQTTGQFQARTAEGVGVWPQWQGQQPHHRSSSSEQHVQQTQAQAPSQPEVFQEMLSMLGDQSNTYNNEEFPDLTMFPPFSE

`COc1ccc2c(C(=O)c3nc(C4(O)CCOC4=O)cs3)c[nH]c2c1` (stereo not drawn) [Compound 2-3]: the EC50 in assay [1] is at most 10 nM; in assay [2], below 100 nM; in assay [3] it was below 500 nM.
The like results for `CN1CCC(c2csc(C(=O)c3c[nH]c4cc5c(cc34)OCO5)n2)C1=O` (stereo not drawn) [Compound 7-6] were, in that order, 2000 to 100000 nM, below 100 nM and below 500 nM.
The like results for `COc1ccc2[nH]cc(C(=O)c3nc(C4CCOC4=O)cs3)c2c1` (stereo not drawn) [Compound 1-5] were, in that order, at most 10 nM, below 100 nM and below 500 nM.
The matching figures for `COc1ccc2c(C(=O)c3nc(C4CCOC4=O)cs3)c[nH]c2c1` (stereo not drawn) [Compound 1-3]: at most 10 nM, below 100 nM and below 500 nM.
In the case of `COc1ccc2[nH]cc(C(=O)c3nc(C4CCN(C)C4=O)cs3)c2c1` (stereo not drawn) [Compound 7-5], the figures for the EC50 in assay [1], in assay [2] and in assay [3] were 2000 to 100000 nM, below 100 nM and below 500 nM, respectively.
The matching figures for `O=C(c1nc(C2(Cl)CCOC2=O)cs1)c1c[nH]c2cc(F)ccc12` (stereo not drawn) [Compound 4-2]: at most 10 nM, below 100 nM and below 500 nM.
For `O=C(c1nc(C2CCOC2=O)cs1)c1c[nH]c2ccc(F)cc12` (stereo not drawn) [Compound 1-4], the half-maximal effective concentration (EC50) is at most 10 nM in assay [1], below 100 nM in assay [2] and below 500 nM in assay [3].
As for `O=C(c1nc(C2(O)CCOC2=O)cs1)c1c[nH]c2cc(F)ccc12` (stereo not drawn) [Compound 2-2], the 50% effective concentration (EC50) is at most 10 nM in assay [1], below 100 nM in assay [2] and below 500 nM in assay [3].
The like results for `COC(=O)c1csc(C(=O)c2c[nH]c3ccccc23)n1` [ITE, 2-(1H-indole-3-carbonyl)thiazole-4-carboxylic acid methyl ester, reference compound] were, in that order, 10 to 2000 nM, 100 to 2000 nM and below 500 nM.
The like results for `O=C(c1nc(C2CCOC2=O)cs1)c1c[nH]c2cc(F)ccc12` (stereo not drawn) [Compound 1-2] were, in that order, at most 10 nM, below 100 nM and below 500 nM.
With `O=C(c1nc(C2(O)CCOC2=O)cs1)c1c[nH]c2ccccc12` (stereo not drawn) [Compound 2], the figures for the concentration for a half-maximal effect (EC50) in assay [1], in assay [2] and in assay [3] were at most 10 nM, below 100 nM and below 500 nM, respectively.
The like results for `O=C(c1nc(C2CCOC2=O)cs1)c1c[nH]c2cc3c(cc12)OCO3` (stereo not drawn) [Compound 1-6] were, in that order, at most 10 nM, below 100 nM and below 500 nM.
For the compound `O=C(c1nc(C2CCOC2=O)cs1)c1c[nH]c2ccccc12` (stereo not drawn) [Compound 1, 3-[2-(1H-indole-3-carbonyl)-1,3-thiazol-4-yl]tetrahydrofuran-2-one], the concentration giving a half-maximal response (EC50) in assay [1] is at most 10 nM; in assay [2], below 100 nM; in assay [3], below 500 nM.

As usually defined, the EC50 is the concentration needed to bring the measured effect to its halfway point.

The record behind these values is US20260226041A1 (ARIGENX THERAPEUTICS CO., LTD., priority 2023, published 2026).
